Measurements: ChEMBL document CHEMBL1201862, “PubChem BioAssay data set” (2004)
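Each compound was tested at five concentrations against cells in 96-well plates for 48 hours. GI50 = concentration required for 50% inhibition of growth.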 Active and inactive are the calls of the source. Cut-off read from the data, not from the text of the source: active = GI50 up to about 1.1 µM and inactive = higher.

How the values were obtained:
Assay in all cases: NCI-60 cell line screen, 48 h
[1] = tested on: 786-0
[2] = tested on: A498
[3] = tested on: A549
[4] = tested on: ACHN
[5] = tested on: CAKI-1
[6] = tested on: CCRF-CEM
[7] = tested on: COLO 205
[8] = tested on: DLD-1
[9] = tested on: DMS-273
[10] = tested on: EKVX
[11] = tested on: HCC 2998
[12] = tested on: HCT-116
[13] = tested on: HL-60
[14] = tested on: HOP-18
[15] = tested on: HOP-62
[16] = tested on: HOP-92
[17] = tested on: HT-29
[18] = tested on: IGROV-1
[19] = tested on: K562
[20] = tested on: KM-20L2
[21] = tested on: KM12
[22] = tested on: LOX IMVI
[23] = tested on: LXFL 529
[24] = tested on: M14
[25] = tested on: M19-MEL
[26] = tested on: MOLT-4
[27] = tested on: Malme-3M
[28] = tested on: NCI-H226
[29] = tested on: NCI-H23
[30] = tested on: NCI-H522
[31] = tested on: OVCAR-3
[32] = tested on: OVCAR-4
[33] = tested on: OVCAR-5
[34] = tested on: OVCAR-8
[35] = tested on: RXF 393
[36] = tested on: SF-268
[37] = tested on: SF-295
[38] = tested on: SF-539
[39] = tested on: SK-MEL-28
[40] = tested on: SK-MEL-2
[41] = tested on: SK-MEL-5
[42] = tested on: SK-OV-3
[43] = tested on: SN12C
[44] = tested on: SNB-19
[45] = tested on: SNB-75
[46] = tested on: SNB-78
[47] = tested on: SR
[48] = tested on: SW-620
[49] = tested on: TK-10
[50] = tested on: U-251
[51] = tested on: UACC-257
[52] = tested on: UACC-62
[53] = tested on: UO-31
[54] = tested on: XF498
[55] = tested on: DMS-114
[56] = tested on: NCI-H460
[57] = tested on: RPMI-8226

Measured: GI50

Fc1cccc2c1cc1ccc3cccc4ccc2c1c34
inactive: [1] > 100 µM | [2] > 100 µM | [3] > 100 µM | [4] > 100 µM | [5] > 100 µM | [6] > 100 µM | [7] > 100 µM | [8] > 100 µM | [9] > 100 µM | [10] > 100 µM | [11] > 100 µM | [12] > 100 µM | [13] > 100 µM | [14] > 100 µM | [15] > 100 µM | [16] > 100 µM | [17] > 100 µM | [18] > 100 µM | [19] > 100 µM | [20] > 100 µM | [21] > 100 µM | [22] > 100 µM | [23] > 100 µM | [24] > 100 µM | [25] > 100 µM | [26] > 100 µM | [27] > 100 µM | [28] > 100 µM | [29] > 100 µM | [30] > 100 µM | [31] > 100 µM | [32] > 100 µM | [33] > 100 µM | [34] > 100 µM | [35] > 100 µM | [36] > 100 µM | [37] > 100 µM | [38] > 100 µM | [39] > 100 µM | [40] > 100 µM | [41] > 100 µM | [42] > 100 µM | [43] > 100 µM | [44] > 100 µM | [45] > 100 µM | [46] > 100 µM | [47] 60.5 µM | [48] > 100 µM | [49] 60.1 µM | [50] > 100 µM | [51] 95.7 µM | [52] > 100 µM | [53] > 100 µM | [54] > 100 µM

CSC(C1c2ccccc2N(c2ccc(C)cc2)c2[nH]c(=O)n(C)c(=O)c21)S(=O)(=O)c1ccc(C)cc1 (stereo unspecified)
inactive: [1] > 100 µM | [2] > 100 µM | [3] > 100 µM | [5] > 100 µM | [6] 71.6 µM | [7] > 100 µM | [8] > 100 µM | [55] > 100 µM | [9] > 100 µM | [10] > 100 µM | [11] > 100 µM | [12] > 100 µM | [13] 43.5 µM | [15] > 100 µM | [16] > 100 µM | [17] > 100 µM | [18] > 100 µM | [19] > 100 µM | [20] > 100 µM | [22] > 100 µM | [23] > 100 µM | [24] > 100 µM | [25] > 100 µM | [26] > 100 µM | [27] > 100 µM | [28] > 100 µM | [29] > 100 µM | [56] > 100 µM | [30] 63.8 µM | [31] > 100 µM | [32] 97.7 µM | [33] > 100 µM | [34] > 100 µM | [57] 97.1 µM | [36] > 100 µM | [37] > 100 µM | [38] > 100 µM | [39] > 100 µM | [40] > 100 µM | [41] > 100 µM | [42] > 100 µM | [43] > 100 µM | [44] > 100 µM | [45] > 100 µM | [46] > 100 µM | [48] > 100 µM | [49] > 100 µM | [50] > 100 µM | [51] > 100 µM | [52] > 100 µM | [53] > 100 µM | [54] > 100 µM
